Data set [1] has as its system P. aeruginosa ATCC 27853. Nature of the data set: MIC, broth dilution, P. aeruginosa. It is filed as cell-based, Pseudomonas aeruginosa. As to conditions: Pseudomonas aeruginosa, ATCC27853; P. aeruginosa ATCC 27853, 18 h; read-out: MIC Pa. (In general: Dilution methods test growth across graded concentrations, often in twofold steps.)
Data set [2] is described as follows: Cytotoxicity assay (resazurin). The format is cell-based. As to conditions: human, HEK293 cells, mean n = 2. Background: Resazurin is reduced to fluorescent resorufin, in cell work by metabolically active cells.
Data set [3] deals with E. coli ATCC 25922. The data set is described as follows: Erythromycin potentiation against E. coli. It is filed as cell-based, Escherichia coli. As to conditions: erythromycin at 2 µg/mL (2.7 µM); for Erythro/Ec fold-change (intrinsic MIC / combination MIC): E. coli; for Erythro/Ec: concentration required to restore erythromycin activity (combination MIC): mean n = 3. From the text: (§1) These measurements were independently repeated in triplicate.

Data set [4] relates to C. neoformans ATCC 208821. The data set is described as follows: Antifungal MIC (CO-ADD), C. neoformans. The format is cell-based. To be noted: Cryptococcus neoformans, ATCC208821, top dose 32 µg/mL. How it is done: (§2) For the antifungal assay, fungi strains were cultured for 3 days on YPD agar at 30 °C. A yeast suspension of 1 × 10^6 to 5 × 10^6 CFU/mL was prepared from five colonies. These stock suspensions were diluted with a yeast nitrogen base (YNB) (Becton Dickinson, 233520, New South Wales, Australia) broth to a final concentration of 2.5 × 10^3 CFU/mL. […] The plates were covered and incubated at 35 °C for 36 h without shaking. C. albicans MICs were determined by measuring the absorbance at OD530. For C. neoformans, resazurin was added at a 0.006% final concentration to each well and incubated for a further 3 h before the MICs were determined by measuring the absorbance at OD570–600. […] Fluconazole was used as a positive fungal inhibitor standard for C. albicans and C. neoformans. […] The quality control (QC) of the assays was determined by the antimicrobial controls and the Z′-factor (using positive and negative controls).

Data set [5] relates to P. aeruginosa ATCC 27853. The data set is described as follows: Doxycycline potentiation against P. aeruginosa. The format is cell-based, Pseudomonas aeruginosa. To be noted: doxycycline at 2 µg/mL (4.5 µM); for Dox/Pa fold-change (intrinsic MIC / combination MIC): P. aeruginosa ATCC 27853; for Dox/Pa: concentration required to restore doxycycline activity (combination MIC): P. aeruginosa ATCC 27853, mean n = 3.
Excerpt: as §1

Data set [6] deals with A. baumannii ATCC 19606. The data set is described as follows: MIC, broth microdilution (CO-ADD), A. baumannii. As to conditions: Acinetobacter baumannii, ATCC19606, top dose 32 µg/mL. The format is cell-based, Acinetobacter baumannii.
The test system of data set [7] is S. aureus ATCC 25923. The data set is described as follows: MIC, broth dilution, S. aureus. The format is cell-based, Staphylococcus aureus. To be noted: Staphylococcus aureus, ATCC25923; S. aureus ATCC 25923, 18 h; read-out: MIC Sa.
The test system of data set [8] is K. pneumoniae ATCC 700603. The data set is described as follows: MIC, broth microdilution (CO-ADD), K. pneumoniae. To be noted: top dose 32 µg/mL.
Data set [9] relates to E. coli ATCC 25922. Nature of the data set: MIC, broth dilution, E. coli. The format is cell-based, Escherichia coli. To be noted: Escherichia coli, ATCC25922; E. coli ATCC 25922, 18 h.
For data set [10], the system named is human red blood cells. The data set is described as follows: Hemolytic assay. The format is cell-based. As to conditions: 10% hemolytic activity, mean n = 2. On the procedure:
Human whole blood was washed three times with three volumes of 0.9% NaCl and then resuspended in the same solution to a concentration of 0.5 × 10^8 cells/mL, as determined by the manual cell count in a Neubauer hemocytometer. The washed cells were then added to the 384-well compound-containing plates for a final volume of 50 μL. After a 10 min shake on a plate shaker, the plates were then incubated for 1 h at 37 °C. After incubation, the plates were centrifuged at 1000× g for 10 min to pellet cells and debris; 25 μL of the supernatant was then transferred to a polystyrene 384-well assay plate. Hemolysis was determined by measuring the supernatant absorbance at […] (OD405). The absorbance was measured using a Tecan M1000 Pro monochromator plate reader. HC10 and HC50 (concentrations at 10% and 50% hemolysis, respectively) were calculated by a curve fitting the inhibition values vs. log (concentration) using a sigmoidal dose–response function with variable fitting values for the top, bottom, and slope.

Data set [11] has as its system MRSA ATCC 43300. Nature of the data set: MIC, broth microdilution (CO-ADD), MRSA. The format is cell-based, methicillin-resistant S. aureus. As to conditions: Staphylococcus aureus; MRSA ATCC 43300; top dose 32 µg/mL; read-out: MIC MRSA.
Data set [12] has as its system C. albicans ATCC 90028. Nature of the data set: Antifungal MIC (CO-ADD), C. albicans. It is filed as cell-based. To be noted: Candida albicans, ATCC90028, top dose 32 µg/mL. How it is done:
as §2

≈ marks a conversion by molar mass, not a printed value. Some results are limits rather than exact numbers.

The source of these data is publication PMC10967822, “Antimicrobial Indole-3-Carboxamido-Polyamine Conjugates Target Bacterial Membranes and Are Antibiotic Potentiators” (Biomolecules, 2024).

What is called MIC is the lowest concentration found to suppress growth. The term IC50 denotes the midpoint of a concentration-inhibition curve.

As to `Cc1cccc2c(C(=O)NCCCNCCCCCCCCNCCCNC(=O)c3c[nH]c4c(C)cccc34)c[nH]c12` [Compound 18d], the MIC in data set [1] is 250 µM (≈ 143 µg/mL); in [4], at most 0.31 µM; in data set [6] it was above 40 µM; in [7], above 250 µM; in data set [9], above 250 µM; in data set [11], at most 0.31 µM. The same compound displayed an MIC in data set [12] above 40 µM. This compound returned an IC50 at 20 h in data set [2] above 40 µM. In addition, the “Erythro/Ec fold-change (intrinsic MIC / combination MIC)” value in data set [3] was determined as 1 fold. Also, in data set [3], the “Erythro/Ec: concentration required to restore erythromycin activity (combination MIC)” value (shortened to “Erythro/Ec: concentration required”) is 250 µM. For the same compound, the “Dox/Pa fold-change (intrinsic MIC / combination MIC)” value in [5] is 8 fold. Also, the “Dox/Pa: concentration required to restore doxycycline activity (combination MIC)” value (from here on “Dox/Pa: concentration required”) in [5] came to 31.2 µM. For the same compound, the “MIC Kp” value in data set [8] is recorded as above 40 µM. Moreover, the “Hemolysis HC10” value in [10] is on record as above 40 µM.

On to `O=C(NCCCNCCCCCCCCCCCCNCCCNC(=O)c1c[nH]c2ccccc12)c1c[nH]c2ccccc12.O=C(O)C(F)(F)F.O=C(O)C(F)(F)F` [Compound 12f], for which the MIC was 121 µM in [1]; at most 0.3 µM in data set [4]; 4.82 µM in [6]; 3.77 µM in data set [7]; 15.1 µM in data set [9]; at most 0.3 µM in data set [11]. The compound further showed a minimum inhibitory concentration (MIC) in data set [12] of at most 0.3 µM. The IC50 at 20 h in [2] was above 39 µM. For the same compound, the “Erythro/Ec fold-change (intrinsic MIC / combination MIC)” value in data set [3] worked out at 2 fold. For the same compound, the “Erythro/Ec: concentration required” value in [3] is reported as 7.54 µM. Moreover, the “Dox/Pa fold-change (intrinsic MIC / combination MIC)” value in data set [5] is 8 fold. For the same compound, the “Dox/Pa: concentration required” value in data set [5] was 15.1 µM. The “MIC Kp” value in data set [8] is on record as above 39 µM. In addition, the “Hemolysis HC10” value in data set [10] is reported as above 39 µM.

`Cc1ccc2[nH]cc(C(=O)NCCCNCCCCNCCCNC(=O)c3c[nH]c4ccc(C)cc34)c2c1` [Compound 15a]: the MIC is above 269 µM in data set [1]; at most 0.34 µM in data set [4]; above 43 µM in [6]; 67.1 µM (≈ 34.7 µg/mL) in [7]; above 269 µM in data set [9]; at most 0.34 µM in [11]. Moreover, the MIC in [12] was above 43 µM. The compound also yielded an IC50 at 20 h in [2] above 43 µM. The “Erythro/Ec fold-change (intrinsic MIC / combination MIC)” value in [3] was above 4 fold. Besides, in [3], the “Erythro/Ec: concentration required” value is given as 67.1 µM. In addition, the “Dox/Pa fold-change (intrinsic MIC / combination MIC)” value in data set [5] was above 8 fold. Also, the “Dox/Pa: concentration required” value in [5] is 33.6 µM. The “MIC Kp” value in [8] is reported as above 43 µM. Further, in [10], the “Hemolysis HC10” value was above 43 µM.

As for `Cc1cccc2c(C(=O)NCCCNCCCCCCCCCCNCCCNC(=O)c3c[nH]c4c(C)cccc34)c[nH]c12` [Compound 18e], the minimal inhibitory concentration (MIC) is 60.3 µM (≈ 36.2 µg/mL) in [1]; at most 0.3 µM in data set [4]; above 39 µM in data set [6]; 30.2 µM (≈ 18.1 µg/mL) in [7]; 30.2 µM (≈ 18.1 µg/mL) in data set [9]; at most 0.3 µM in data set [11]. This compound also showed an MIC in data set [12] of 4.83 µM (≈ 2.9 µg/mL). The same compound registered a half-inhibitory concentration (IC50) at 20 h in [2] above 39 µM. In [3], the “Erythro/Ec fold-change (intrinsic MIC / combination MIC)” value was 2 fold. For the same compound, the “Erythro/Ec: concentration required” value in data set [3] was 15.1 µM. Also, in data set [5], the “Dox/Pa fold-change (intrinsic MIC / combination MIC)” value stood at 4 fold. For the same compound, the “Dox/Pa: concentration required” value in data set [5] is reported as 15.1 µM. Further, in [8], the “MIC Kp” value is above 39 µM. For the same compound, the “Hemolysis HC10” value in [10] is listed as above 39 µM.
